Among the data in the Bradley open melting point set (2014) are melting point values, retold here.

What is called melting point is the temperature of the solid-liquid transition.

In turn, `Brc1ccc(-c2ccc(Br)cc2)cc1` [p,p'-dibromobiphenyl] had a melting point of 170 °C.

In turn, `NCCO` [2-Aminoethanol] yielded a melting point of 11 °C.

On to `CC(C)(C)CS` [2,2-dimethyl-1-propanethiol], for which the melting point was -67 °C.

The compound `OC[C@H]1O[C@@](CO)(O[C@H]2O[C@H](CO)[C@@H](O)[C@H](O)[C@H]2O)[C@@H](O)[C@@H]1O` [sucrose] showed a melting point of 188 °C.

Turning to `NC(=O)N1c2ccccc2C=Cc2ccccc21` [carbamazepine], the melting point was found to be 190 °C.

In the case of `c1ccc([Si]2(c3ccccc3)O[Si](c3ccccc3)(c3ccccc3)O[Si](c3ccccc3)(c3ccccc3)O[Si](c3ccccc3)(c3ccccc3)O2)cc1` [octaphenylcyclotetrasiloxane], the melting point came out at 201 °C.

The compound `CC(C)C(C)(C)O` [2,3-dimethyl-2-butanol] returned a melting point of -10 °C.

The compound `O=C(O)CCS` [3-mercaptopropionic acid] showed a melting point of 18 °C.

Compound `CC(=O)Oc1cccc(C(=O)O)c1C` [3-acetoxy-2-methylbenzoic acid] returned a melting point of 150 °C.

`CC(C)(S)[C@@H](N)C(=O)O` [Penicillamine] displayed a melting point of 198 °C.

With `O=Cc1ccc(OCC(=O)O)cc1` [4-formylphenoxyacetic acid], the melting point is 196 °C.

On to `CC(Br)CCCBr` (stereo not drawn) [1,4-dibromopentane], for which the melting point is -34 °C.

`c1ccc2c(c1)ccc1cc3c(ccc4ccccc43)cc12` [dibenzo[a,h]anthracene] gave a melting point of 266 °C.

The compound `Cc1ccc(O)c(/N=N/c2c(O)cc(S(=O)(=O)O)c3ccccc23)c1` showed a melting point of 300 °C.

Turning to `CC(O)CO` (stereo not drawn) [1,2-propanediol], the melting point is -60 °C.

`CC(=O)C(C)=NO` [2,3-butanedione monoxime] gave a melting point of 76 °C.

`OCCNCCO` [diethanolamine] registered a melting point of 29 °C.

`CCC(=O)c1ccc(O)cc1O` [2',4'-dihydroxypropiophenone] showed a melting point of 100 °C.

With `C=CCC1(CC(C)C)C(=O)NC(=O)NC1=O` [Butalbital], the melting point worked out at 138 °C.

On to `Cc1ccc(S(=O)(=O)OI(O)c2ccccc2)cc1` [hydroxy(tosyloxy)iodobenzene], for which the melting point came out at 134 °C.

For `CCOC(=O)c1ccc([N+](=O)[O-])o1` [ethyl 5-nitro-2-furoate], the melting point worked out at 101 °C.

Turning to `O=C1c2ccccc2-c2cccc3cccc1c23` [7h-benz[de]anthracen-7-one], the melting point stood at 173 °C.

As to `O=[N+]([O-])c1ccc(Cl)c(Cl)c1` [1,2-dichloro-4-nitrobenzene], the melting point stood at 41 °C.

As to `O=[N+]([O-])c1ccc(/C=C/c2ccccc2[N+](=O)[O-])cc1` [1-nitro-2-[(E)-2-(4-nitrophenyl)ethenyl]benzene], the melting point came out at 139 °C.

For `Clc1ccc(Cl)cc1` [p-dichlorobenzene], the melting point turned out to be 53 °C.

In turn, `CC(C)C` [Isobutane] showed a melting point of -160 °C.

As to `CC(O)C(C)O` (stereo not drawn) [2,3-butanediol], the melting point is 25 °C.

The compound `O=c1[nH]c(=O)n([C@H]2C[C@H](O)[C@@H](CO)O2)cc1I` [Idoxuridine] returned a melting point of 165 °C.

In the case of `CCOC(=O)c1ccc(C(=O)OCC)cc1` [diethyl terephthalate], the melting point came out at 45 °C.

`[2H]C1([2H])OC([2H])([2H])C([2H])([2H])C1([2H])[2H]` [(~2~H_8_)Tetrahydrofuran]: the melting point is -106 °C.

In turn, `O=C(O)C1CC=CCC1` (stereo not drawn) [3-cyclohexene-1-carboxylic acid] gave a melting point of 17 °C.

`C=C(CC)CC` [2-ethyl-1-butene] registered a melting point of -132 °C.

`c1cc(OCC2CO2)cc(OCC2CO2)c1` (stereo not drawn) [resorcinol diglycidyl ether] showed a melting point of 34 °C.

`CC(Cc1ccccc1)c1ccccc1` (stereo not drawn) [1,2-diphenylpropane] gave a melting point of 0 °C.

In the case of `COc1ccc(-c2csc(C(C#N)=Cc3cccs3)n2)cc1`, the melting point was determined as 141 °C.

In turn, `CCC(C)c1ccccc1` (stereo not drawn) [sec-butylbenzene] yielded a melting point of -75 °C.

The compound `OB(O)c1ccoc1` [furan-3-boronic acid] returned a melting point of 142 °C.

As to `N#Cc1ccccc1Br` [2-bromobenzonitrile], the melting point is 55 °C.

`C=C(C)[C@@H]1CCC2=CC(=O)C[C@@H](C)[C@]2(C)C1` had a melting point of 36.9 °C.

Regarding `CCOC(=O)c1csc(C)n1` [ethyl 2-methylthiazole-4-carboxylate], the melting point amounted to 55 °C.

Consider `Nc1cc([N+](=O)[O-])ccc1O` [2-amino-4-nitrophenol], for which the melting point was 144 °C.

Turning to `CCCCCCCCCCCCC` [N-tridecane], the melting point was -5 °C.

`Nc1cc2ccccc2cc1N` [2,3-diaminonaphthalene] registered a melting point of 195 °C.

`CC(C)CC(=O)O` [isovaleric acid]: the melting point was -29.3 °C.

In the case of `Cc1ncc([N+](=O)[O-])n1C` [dimetridazole], the melting point stood at 140 °C.

For `O=NN1CN2CN(C1)CN(N=O)C2` [3,7-Dinitroso-1,3,5,7-tetraazabicyclo[3.3.1]nonane], the melting point is 207 °C.

The compound `Cc1ccc(S(=O)(=O)Cl)cc1` [p-toluenesulfonyl chloride] registered a melting point of 69 °C.

For `OB(O)c1cccc(C(F)(F)F)c1` [3-(trifluoromethyl)benzeneboronic acid], the melting point was 164 °C.

For `O=C1CCC(=O)N1C1CCCCC1` [N-(cyclohexyl)succinimide], the melting point turned out to be 165 °C.

For `CC(NC(=O)COCCN1C(=O)c2ccccc2C1=O)C(=O)NC(CCC(=O)O)C(=O)O` (stereo not drawn), the melting point worked out at 194 °C.

Compound `CCCCCCCCCCCCCCCC(=O)OC[C@H](O)[C@H]1OC(=O)C(O)=C1O` [L-ascorbic acid 6-palmitate] displayed a melting point of 114 °C.

`CCCCCCCCCCCC(=O)O` [dodecanoic acid] displayed a melting point of 44 °C.

Regarding `O=CNC1C/C=C/CC(NC=O)C/C=C/C1` (stereo not drawn) [N,N'-(3E,8E)-cyclodeca-3,8-diene-1,6-diyldiformamide], the melting point was 234 °C.

Compound `Cc1cccc(C(=O)O)c1` [3-Methylbenzoic acid] returned a melting point of 112 °C.

Compound `CCCCCCCCCCCl` [1-chlorodecane] had a melting point of -31 °C.

Turning to `O=C(O)[C@H](O)[C@@H](O)C(=O)O` [L-tartaric acid], the melting point was determined as 169 °C.

For `O=C2c1ccccc1S(=O)(=O)N(C)C/2=C(O)Nc3ccccn3` [Piroxicam], the melting point came to 199 °C.

The compound `O=C(c1ccccc1)c1ccc(O)cc1O` [2,4-dihydroxybenzophenone] returned a melting point of 146 °C.

For `Oc1ccccc1C=NCCCN=Cc1ccccc1O` [N,N'-bis(salicylidene)-1,3-propanediamine], the melting point stood at 52 °C.

The compound `BrC(Br)c1ccccc1C(Br)Br` [alpha,alpha,alpha',alpha'-tetrabromo-o-xylene] showed a melting point of 116 °C.

`CC(=O)Nc1ccccc1C` [2'-methylacetanilide] had a melting point of 111 °C.

Regarding `CCC1(c2ccccc2)C(=O)NCNC1=O` [primidone], the melting point stood at 282 °C.

In the case of `c1ccc2c(c1)Oc1ccccc1S2` [phenoxathiin], the melting point is 57 °C.
